Assay results taken from ChEMBL document CHEMBL1142909, “Synthesis and insecticidal activity of chromanone and chromone analogues of diacylhydrazines” (2007).

Columns and labels:
Assay type in all cases: functional
Nilaparvata lugens = test: Insecticidal activity against Nilaparvata lugens at 500 mg/L relative to control
Mythimna separata = test: Insecticidal activity against Mythimna separata at 500 mg/L relative to control
Aphis = test: Insecticidal activity against Aphis medicagini at 250 mg/L relative to control
Tetranychus cinnabarinus = test: Insecticidal activity against Tetranychus cinnabarinus at 250 mg/L relative to control

Compound	Activity (Nilaparvata lugens) [%]	Activity (Mythimna separata) [%]	Activity (Aphis) [%]	Activity (Tetranychus cinnabarinus) [%]
CC(C)(C)N(NC(=O)c1cccc(Cl)c1)C(=O)c1coc2ccc(Cl)cc2c1=O	0	73.3	16	0
CC(C)(C)N(NC(=O)c1ccc(Cl)cc1)C(=O)c1coc2ccccc2c1=O	0	66.7	2	0
CC1(C)CC(=O)c2cc(C(=O)NN(C(=O)c3ccccc3)C(C)(C)C)ccc2O1	0	80	8	0
CC1(C)CC(=O)c2cc(C(=O)NN(C(=O)c3ccc(Cl)cc3)C(C)(C)C)ccc2O1	0	84.2	4.2	0
CC(C)(C)N(NC(=O)c1ccccc1)C(=O)c1coc2ccccc2c1=O	7.1	0	21.1	0
Cc1ccccc1C(=O)N(NC(=O)c1ccc2c(c1)C(=O)CC(C)(C)O2)C(C)(C)C	3.4	40	0	0
Cc1ccc2occ(C(=O)N(NC(=O)c3cccc(Cl)c3)C(C)(C)C)c(=O)c2c1	3.4	26.7	0	0
CC(C)(C)N(NC(=O)c1cccc(Cl)c1)C(=O)c1coc2ccccc2c1=O	0	20	4	0
CC1(C)CC(=O)c2cc(C(=O)NN(C(=O)c3ccccc3Cl)C(C)(C)C)ccc2O1	0	66.7	8	58.3
CC1(C)CC(=O)c2cc(C(=O)NN(C(=O)c3cccc(Cl)c3)C(C)(C)C)ccc2O1	0	13.3	0	0
Cc1cccc(C(=O)NN(C(=O)c2coc3ccc(Cl)cc3c2=O)C(C)(C)C)c1	7.1	26.7	6	0
Cc1cc(C)cc(C(=O)N(NC(=O)c2ccc3c(c2)C(=O)CC(C)(C)O3)C(C)(C)C)c1	7.1	100	8	66.7
Cc1ccc2occ(C(=O)N(NC(=O)c3ccccc3)C(C)(C)C)c(=O)c2c1	0	60	0	51.7
CC(C)(C)N(NC(=O)c1ccccc1)C(=O)c1coc2ccc(Cl)cc2c1=O	18.2	58.3	0	0
CC1(C)CC(=O)c2cc(C(=O)NN(C(=O)c3ccccc3F)C(C)(C)C)ccc2O1	3.4	0	4	76.7
CC1(C)CC(=O)c2cc(C(=O)NN(C(=O)c3ccc(F)cc3)C(C)(C)C)ccc2O1	0	0	4	0
CC1(C)CC(=O)c2cc(C(=O)NN(C(=O)c3ccc(Br)cc3)C(C)(C)C)ccc2O1	0	6.7	4	0
